Tests used:
NCI-H1975 [1] = assay: Cytotoxicity against human NCI-H1975 cells by MTT assay; assay type: functional, cell-based
NCI-H1299 [2] = assay: Cytotoxicity against human NCI-H1299 cells by MTT assay; assay type: functional, cell-based
A549 [3] = assay: Cytotoxicity against human A549 cells by MTT assay; assay type: functional, cell-based
NCI-H1975 [4] = assay: Induction of apoptosis in human NCI-H1975 cells assessed as early apoptotic cells at 0.3 uM after 48 hrs by Annexin-V-FITC/propidium iodide staining based flow cytometric method (reference value: 2.5 to 3.56%); assay type: functional
A549 [5] = assay: Induction of apoptosis in human A549 cells assessed as early apoptotic cells at 0.1 uM after 48 hrs by Annexin-V-FITC/propidium iodide staining based flow cytometric method (reference value: 1.04 to 2.73%); assay type: functional
NCI-H1299 [6] = assay: Induction of apoptosis in human NCI-H1299 cells assessed as late apoptotic cells at 0.3 uM after 48 hrs by Annexin-V-FITC/propidium iodide staining based flow cytometric method (reference value: 2.69%); assay type: functional
NCI-H1299 [7] = assay: Induction of apoptosis in human NCI-H1299 cells assessed as late apoptotic cells at 0.1 uM after 48 hrs by Annexin-V-FITC/propidium iodide staining based flow cytometric method (reference value: 2.69%); assay type: functional
A549 [8] = assay: Induction of apoptosis in human A549 cells after 48 hrs by Annexin-V-FITC/propidium iodide staining based flow cytometric method; assay type: functional, cell-based
A549 [9] = assay: Induction of apoptosis in human A549 cells assessed as late apoptotic cells at 0.3 uM after 48 hrs by Annexin-V-FITC/propidium iodide staining based flow cytometric method (reference value: 3.4 to 4.76%); assay type: functional
A549 [10] = assay: Induction of apoptosis in human A549 cells assessed as late apoptotic cells at 0.1 uM after 48 hrs by Annexin-V-FITC/propidium iodide staining based flow cytometric method (reference value: 3.4 to 4.76%); assay type: functional
NCI-H1299 [11] = assay: Induction of apoptosis in human NCI-H1299 cells after 48 hrs by Annexin-V-FITC/propidium iodide staining based flow cytometric method; assay type: functional, cell-based
NCI-H1975 [12] = assay: Induction of apoptosis in human NCI-H1975 cells assessed as late apoptotic cells at 0.3 uM after 48 hrs by Annexin-V-FITC/propidium iodide staining based flow cytometric method (reference value: 2.92 to 4.29%); assay type: functional
NCI-H1299 [13] = assay: Induction of apoptosis in human NCI-H1299 cells assessed as early apoptotic cells at 0.1 uM after 48 hrs by Annexin-V-FITC/propidium iodide staining based flow cytometric method (reference value: 1.91%); assay type: functional
A549 [14] = assay: Induction of apoptosis in human A549 cells assessed as early apoptotic cells at 0.3 uM after 48 hrs by Annexin-V-FITC/propidium iodide staining based flow cytometric method (reference value: 1.04 to 2.73%); assay type: functional
NCI-H1975 [15] = assay: Induction of apoptosis in human NCI-H1975 cells after 48 hrs by Annexin-V-FITC/propidium iodide staining based flow cytometric method; assay type: functional, cell-based
NCI-H1299 [16] = assay: Induction of apoptosis in human NCI-H1299 cells assessed as early apoptotic cells at 0.3 uM after 48 hrs by Annexin-V-FITC/propidium iodide staining based flow cytometric method (reference value: 1.91%); assay type: functional
NCI-H1975 [17] = assay: Induction of apoptosis in human NCI-H1975 cells assessed as late apoptotic cells at 0.1 uM after 48 hrs by Annexin-V-FITC/propidium iodide staining based flow cytometric method (reference value: 2.92 to 4.29%); assay type: functional
NCI-H1975 [18] = assay: Induction of apoptosis in human NCI-H1975 cells assessed as early apoptotic cells at 0.1 uM after 48 hrs by Annexin-V-FITC/propidium iodide staining based flow cytometric method (reference value: 2.5 to 3.56%); assay type: functional
NCI-H1299 [19] = assay: Induction of apoptosis in human NCI-H1299 cells assessed as late apoptotic cells at 3 uM after 48 hrs by Annexin-V-FITC/propidium iodide staining based flow cytometric method (reference value: 2.69%); assay type: functional
A549 [20] = assay: Induction of apoptosis in human A549 cells assessed as early apoptotic cells at 3 uM after 48 hrs by Annexin-V-FITC/propidium iodide staining based flow cytometric method (reference value: 1.04 to 2.73%); assay type: functional
NCI-H1299 [21] = assay: Induction of apoptosis in human NCI-H1299 cells assessed as early apoptotic cells at 3 uM after 48 hrs by Annexin-V-FITC/propidium iodide staining based flow cytometric method (reference value: 1.91%); assay type: functional
A549 [22] = assay: Induction of apoptosis in human A549 cells assessed as late apoptotic cells at 3 uM after 48 hrs by Annexin-V-FITC/propidium iodide staining based flow cytometric method (reference value: 3.4 to 4.76%); assay type: functional
NCI-H1975 [23] = assay: Induction of apoptosis in human NCI-H1975 cells assessed as early apoptotic cells at 3 uM after 48 hrs by Annexin-V-FITC/propidium iodide staining based flow cytometric method (reference value: 2.5 to 3.56%); assay type: functional
NCI-H1975 [24] = assay: Induction of apoptosis in human NCI-H1975 cells assessed as late apoptotic cells at 3 uM after 48 hrs by Annexin-V-FITC/propidium iodide staining based flow cytometric method (reference value: 2.92 to 4.29%); assay type: functional

Structure (SMILES) | IC50 (NCI-H1975 [1]) | IC50 (NCI-H1299 [2]) | IC50 (A549 [3]) | other results
COC(=O)[C@@]1(C)CCC[C@@]2(C)[C@H]1[C@@H](O)C(=O)[C@H]1[C@@H](C)/C(=C/C(=O)OCCN(C)C)CC[C@@H]12 | 5900 nM | 3800 nM | 4800 nM | 
COC(=O)CC1=CC[C@H]2[C@@H](C(=O)[C@H](O)[C@@H]3[C@]2(C)CCC[C@]3(C)C(=O)OC)[C@H]1C | > 10000 nM | > 10000 nM | > 10000 nM | 
COC(=O)[C@@]1(C)CCC[C@@]2(C)[C@H]1CC(=O)[C@H]1[C@@H](C)/C(=C/C(=O)OCCN(C)C)CC[C@@H]12 | 2100 nM | 1900 nM | 3400 nM | 
COC(=O)/C=C1\CC[C@H]2[C@@H](C(=O)C[C@@H]3[C@]2(C)CC[C@H](OC(C)=O)[C@]3(C)C(=O)OC)[C@H]1C | > 10000 nM | > 10000 nM | > 10000 nM | 
COC(=O)[C@@]1(C)CCC[C@@]2(C)[C@H]1C[C@H](O)[C@H]1[C@@H](C)/C(=C/C(=O)OCCN(C)C)CC[C@@H]12 | 2600 nM | 2400 nM | 3100 nM | 
C/C=C(\C)C(=O)O[C@H]1CC[C@@]2(C)[C@@H]([C@@H](O)C(=O)[C@H]3[C@@H](C)/C(=C/C(=O)OC)CC[C@@H]32)[C@@]1(C)C(=O)OC | > 10000 nM | > 10000 nM | > 10000 nM | 
CC[C@@]1(O)C(=O)OCc2c1cc1n(c2=O)Cc2cc3ccccc3nc2-1 [CAMPTOTHECIN] | 1200 nM | 800 nM | 700 nM | Activity (NCI-H1975 [4]): 7.9%; Activity (A549 [5]): 14.17%; Activity (NCI-H1299 [6]): 9.44%; Activity (NCI-H1299 [7]): 5.22%; Activity (A549 [8]): Dose-dependent effect; Activity (A549 [9]): 14.14%; Activity (A549 [10]): 10.25%; Activity (NCI-H1299 [11]): Dose-dependent effect; Activity (NCI-H1975 [12]): 31.47%; Activity (NCI-H1299 [13]): 13.04%; Activity (A549 [14]): 20.33%; Activity (NCI-H1975 [15]): Dose-dependent effect; Activity (NCI-H1299 [16]): 13.16%; Activity (NCI-H1975 [17]): 6.73%; Activity (NCI-H1975 [18]): 5.54%
CNCCOC(=O)/C=C1\CC[C@H]2[C@@H]([C@@H](O)C(=O)[C@@H]3[C@]2(C)CCC[C@]3(C)C(=O)OC)[C@H]1C | 1000 nM | 1200 nM | 900 nM | 
CNCCOC(=O)/C=C1\CC[C@H]2[C@@H](C(=O)[C@H](O)[C@@H]3[C@]2(C)CCC[C@]3(C)C(=O)OC)[C@H]1C | 3300 nM | 1500 nM | 2100 nM | 
C/C=C(\C)C(=O)O[C@H]1CC[C@@]2(C)[C@@H](C(=O)[C@H](O)[C@H]3[C@@H](C)/C(=C/C(=O)OCCNC)CC[C@@H]32)[C@@]1(C)C(=O)OC | 1100 nM | 1200 nM | 1400 nM | 
COC(=O)/C=C1\CC[C@H]2[C@@H](C(=O)[C@H](O)[C@@H]3[C@]2(C)CCC[C@]3(C)C(=O)OC)[C@H]1C | > 10000 nM | > 10000 nM | > 10000 nM | 
C/C=C(\C)C(=O)O[C@H]1CC[C@@]2(C)[C@@H](CC(=O)[C@H]3[C@@H](C)/C(=C/C(=O)OCCNC)CC[C@@H]32)[C@@]1(C)C(=O)OC | 400 nM | 900 nM | 500 nM | Activity (NCI-H1299 [19]): 8.14%; Activity (NCI-H1975 [4]): 2.14%; Activity (NCI-H1299 [6]): 3.24%; Activity (A549 [8]): Dose-dependent effect; Activity (A549 [9]): 3.96%; Activity (A549 [20]): 7.27%; Activity (NCI-H1299 [11]): Dose-dependent effect; Activity (NCI-H1975 [12]): 3.02%; Activity (NCI-H1299 [21]): 16.48%; Activity (A549 [22]): 12.24%; Activity (A549 [14]): 1.87%; Activity (NCI-H1975 [15]): Dose-dependent effect; Activity (NCI-H1299 [16]): 4.52%; Activity (NCI-H1975 [23]): 5.2%; Activity (NCI-H1975 [24]): 7.56%
COC(=O)/C=C1\CC[C@H]2[C@@H]([C@@H](O)C(=O)[C@@H]3[C@]2(C)CCC[C@]3(C)C(=O)OC)[C@H]1C | > 10000 nM | > 10000 nM | > 10000 nM | 
COC(=O)[C@@]1(C)CCC[C@@]2(C)[C@H]1C(=O)[C@H](O)[C@H]1[C@@H](C)/C(=C/C(=O)OCCN(C)C)CC[C@@H]12 | > 10000 nM | > 10000 nM | > 10000 nM | 

Reference: ChEMBL document CHEMBL4020777, “Cytotoxic and apoptosis-inducing activities against human lung cancer cell lines of cassaine diterpenoids from the bark of Erythrophleum fordii” (Bioorg Med Chem Lett, 2017)
